Legend:
Mus musculus [1] = assay: Ability to inhibit pentylenetetrazole (PTZ) induced convulsions in mice after intravenous administration at 75 mg/Kg; Range is between (0.34-0.73); type: functional
Mus musculus [2] = assay: Ability to facilitate pentylenetetrazole (PTZ) induced convulsions in mice after intravenously administration at 90 mg/Kg; Range is between (0.24-0.40); type: functional; settings: iv
[3] = biological target: GABA-A receptor; anion channel; assay: Displacement of [3H]-diazepam from GABA-A benzodiazepine receptor of rat cerebral cortex; type: tissue-based
Mus musculus [4] = species: Mus musculus; assay: animal or person; settings: po
Mus musculus [5] = assay: Ability to facilitate pentylenetetrazole (PTZ) induced convulsions in mice after peroral administration at 50 mg/Kg; type: functional; settings: po
Mus musculus [6] = assay: Ability to facilitate pentylenetetrazole (PTZ) induced convulsions in mice after intravenously administration at 90 mg/Kg; Range is between (0.27-0.71); type: functional; settings: iv
Mus musculus [7] = assay: Ability to inhibit pentylenetetrazole (PTZ) induced convulsions in mice after intravenously administration at 75 mg/Kg; Range is between (0.62-1.62); type: functional; settings: iv
Mus musculus [8] = assay: Ability to inhibit pentylenetetrazole (PTZ) induced convulsions in mice after peroral administration at 90 mg/Kg; type: functional; settings: po
Mus musculus [9] = assay: Ability to inhibit pentylenetetrazole (PTZ) induced convulsions in mice after peroral administration at 75 mg/Kg; […]; type: functional; settings: po
Mus musculus [10] = assay: Ability to inhibit pentylenetetrazole (PTZ) induced convulsions n mice after peroral administration at 125 mg/Kg; Range is between (2.70-7.09); type: functional; settings: po
Mus musculus [11] = assay: Ability to facilitate pentylenetetrazole (PTZ) induced convulsions n mice after intravenous administration at 90 mg/Kg; Range is between (0.09-0.50); type: functional
Mus musculus [12] = assay: Ability to facilitate pentylenetetrazole (PTZ) induced convulsions n mice after peroral administration at 90 mg/Kg; Range is between (5.43-33.74); type: functional; settings: po

COC(=O)c1cc2c(cn1)[nH]c1ccccc12 [BETA-CCM]
ED50 (Mus musculus [1]): 0.49 mg/kg
ED50 (Mus musculus [2]): 0.29 mg/kg
Ki [3]: 1470 pM

CN1C(=O)CN=C(c2ccccc2)c2cc(Cl)ccc21 [DIAZEPAM]
ED50 (Mus musculus [4]): 0.67 mg/kg

CCOC(=O)c1cc2c(cn1)[nH]c1ccccc12
ED50 (Mus musculus [5]): 37.5 mg/kg
ED50 (Mus musculus [6]): 0.46 mg/kg
ED50 (Mus musculus [7]): 1 mg/kg

Cc1cc(-n2[nH]c3c(cnc4ccccc43)c2=O)cs1
ED50 (Mus musculus [8]): 0.92 mg/kg
Ki [3]: 316 pM
ED50 (Mus musculus [9]): 1.67 mg/kg

Cc1ccc(-n2[nH]c3c(cnc4ccccc43)c2=O)s1
ED50 (Mus musculus [10]): 4.59 mg/kg
Ki [3]: 320 pM

O=C1C2C=Nc3ccccc3C2=NN1c1ccccc1 (centres undefined) [CGS-8216]
ED50 (Mus musculus [11]): 0.2 mg/kg
ED50 (Mus musculus [12]): 12.8 mg/kg
